Data reported in ChEMBL document CHEMBL1128078, “Evaluation of substituted benzamides as P2 ligands for symmetry-based inhibitors of HIV protease” (Bioorg Med Chem Lett, 1995).

Assays:
[1] = test system: Human immunodeficiency virus 1; assay: Anti-HIV activity against MT-4 cells using a cytopathicity assay; assay type: functional, organism-based; settings: Human immunodeficiency virus 1, MT4
[2] = test system: MT4; assay: Cytotoxicity against MT-4 cells using a cytopathicity assay.; assay type: functional, Homo sapiens
[3] = target: Human immunodeficiency virus type 1 protease (Human immunodeficiency virus 1, UniProt Q72874); assay: Inhibitory activity against purified HIV protease
[4] = test system: MT4; assay: Anti-HIV activity was determined against MT-4 cells using a cytopathicity assay; NE means no effect; assay type: functional, cell-based, Homo sapiens

Compound	EC50 [1] [µM]	CCIC50 [2] [µM]	IC50 [3] [µM]	EC50 [4]
Nc1ccc(C(=O)N[C@@H](Cc2ccccc2)C[C@H](O)[C@H](Cc2ccccc2)NC(=O)OCc2ccccc2)c(Cl)c1	> 10	15	0.0061	–
COc1cc(C(=O)N[C@@H](Cc2ccccc2)C[C@H](O)[C@H](Cc2ccccc2)NC(=O)OCc2ccccc2)ccc1N	> 8	18	0.0105	–
CC(C)(C)OC(=O)N[C@@H](Cc1ccccc1)C[C@H](O)[C@H](Cc1ccccc1)NC(=O)c1ccc(O)c(O)c1	2.9	21	0.0041	–
CC(C)(C)OC(=O)N[C@@H](Cc1ccccc1)C[C@H](O)[C@H](Cc1ccccc1)NC(=O)c1ccc(O)cc1Cl	1.8	23	0.0014	–
Nc1ccc(C(=O)N[C@@H](Cc2ccccc2)C[C@H](O)[C@H](Cc2ccccc2)NC(=O)OCc2ccccc2)cc1O	> 10	18	0.022	–
CC(C)(C)OC(=O)N[C@@H](Cc1ccccc1)C[C@H](O)[C@H](Cc1ccccc1)NC(=O)c1cc(N)ccc1Cl	1.8	>100	0.0033	–
CC(C)(C)OC(=O)N[C@@H](Cc1ccccc1)C[C@H](O)[C@H](Cc1ccccc1)NC(=O)c1cc(O)cc(O)c1	11	53	0.051	–
O=C(N[C@@H](Cc1ccccc1)[C@@H](O)C[C@H](Cc1ccccc1)NC(=O)c1ccc(O)cc1Cl)OCc1ccccc1	2.2	18	0.0013	–
CC(C)(C)OC(=O)N[C@@H](Cc1ccccc1)C[C@H](O)[C@H](Cc1ccccc1)NC(=O)c1ccc(N)c(N)c1	7.6	81	0.0096	–
O=C(N[C@@H](Cc1ccccc1)C[C@H](O)[C@H](Cc1ccccc1)NC(=O)OCc1ccccc1)OCc1ccccc1	> 30	>100	0.0056	–
CC(C)(C)OC(=O)N[C@@H](Cc1ccccc1)C[C@H](O)[C@H](Cc1ccccc1)NC(=O)c1ccccc1O	> 75	>100	0.145	–
CC(C)(C)OC(=O)N[C@@H](Cc1ccccc1)C[C@H](O)[C@H](Cc1ccccc1)NC(=O)c1cc(O)ccc1Cl	3.7	19	0.012	–
CC(C)(C)OC(=O)N[C@@H](Cc1ccccc1)C[C@H](O)[C@H](Cc1ccccc1)NC(=O)OC(C)(C)C	–	–	0.0053	–
CC(C)(C)OC(=O)N[C@@H](Cc1ccccc1)C[C@H](O)[C@H](Cc1ccccc1)NC(=O)c1ccc(O)cc1	4.8	29	0.0033	–
CC(C)(C)OC(=O)N[C@@H](Cc1ccccc1)C[C@H](O)[C@H](Cc1ccccc1)NC(=O)c1ccc(N)cc1Cl	2.9	48	0.0034	–
CC(C)(C)OC(=O)N[C@@H](Cc1ccccc1)C[C@H](O)[C@H](Cc1ccccc1)NC(=O)c1ccccc1	4.3	16	0.0045	–
CC(C)(C)OC(=O)N[C@@H](Cc1ccccc1)C[C@H](O)[C@H](Cc1ccccc1)NC(=O)c1c(Cl)cccc1Cl	> 10	19	0.067	–
COc1cccc(C(=O)N[C@@H](Cc2ccccc2)[C@@H](O)C[C@H](Cc2ccccc2)NC(=O)OC(C)(C)C)c1	> 10	19	0.023	–
CC(C)(C)OC(=O)N[C@@H](Cc1ccccc1)C[C@H](O)[C@H](Cc1ccccc1)NC(=O)c1ccc(O)c(N)c1	5	57	0.0076	–
CC(C)(C)OC(=O)N[C@@H](Cc1ccccc1)C[C@H](O)[C@H](Cc1ccccc1)NC(=O)c1cccc(O)c1	1.6	45	0.0034	–
COc1cc(C(=O)N[C@@H](Cc2ccccc2)[C@@H](O)C[C@H](Cc2ccccc2)NC(=O)OC(C)(C)C)ccc1O	2.8	43	0.0033	–
CC(C)(C)OC(=O)N[C@@H](Cc1ccccc1)C[C@H](O)[C@H](Cc1ccccc1)NC(=O)c1cc(N)cc(N)c1	–	92	0.25	Not Active
CC(C)(C)OC(=O)N[C@@H](Cc1ccccc1)C[C@H](O)[C@H](Cc1ccccc1)NC(=O)c1ccc(N)c(O)c1	–	11	0.011	Not Active
Cc1c(N)cccc1C(=O)N[C@@H](Cc1ccccc1)[C@@H](O)C[C@H](Cc1ccccc1)NC(=O)OC(C)(C)C	1.4	56	0.0026	–
CC(C)(C)OC(=O)N[C@@H](Cc1ccccc1)C[C@H](O)[C@H](Cc1ccccc1)NC(=O)c1cccc(N)c1Cl	3.1	55	0.0053	–
CC(C)(C)OC(=O)N[C@@H](Cc1ccccc1)C[C@H](O)[C@H](Cc1ccccc1)NC(=O)c1c(Cl)ccc(N)c1Cl	–	–	0.031	–
O=C(N[C@@H](Cc1ccccc1)[C@@H](O)C[C@H](Cc1ccccc1)NC(=O)c1ccccc1)OCc1ccccc1	> 10	>100	0.031	–
CC(C)c1nc(CN(C)C(=O)N[C@H](C(=O)N[C@@H](Cc2ccccc2)C[C@H](O)[C@H](Cc2ccccc2)NC(=O)OCc2cncs2)C(C)C)cs1 [RITONAVIR]	0.022	–	–	–
COc1cc(C(=O)N[C@@H](Cc2ccccc2)[C@@H](O)C[C@H](Cc2ccccc2)NC(=O)OC(C)(C)C)ccc1N	3.2	38	0.0075	–
Cc1c(O)cccc1C(=O)N[C@@H](Cc1ccccc1)[C@@H](O)C[C@H](Cc1ccccc1)NC(=O)OC(C)(C)C	1.2	47	0.0016	–
